Non-standard residues stand in square brackets, D forms with d. No end group written: not given here. Arg(Me2s) = CN=C(NC)NCCC[C@H](N)C(=O)O; pS = N[C@@H](COP(=O)(O)O)C(=O)O
Key:
[1] = system: responder cell line LS8817; experiment: ATRX foci by immunofluorescence in responder cells treated with PD0332991; format: cell-based
Method: (§1) Cells were washed twice with PBS and fixed with 4% paraformaldehyde at room temperature for 20 minutes. Cells were again washed twice with PBS and treated with 0.1% triton X-100 in PBS for five minutes. Cells were again washed twice with PBS and blocked in 5% BSA in PBS for 30 minutes at room temperature. Cells were incubated with anti-ATRX antibody, obtained from Bethyl, Cat No. A301-045A, diluted at 1:2000 in PBS (stock is provided at 1 mg/ml) overnight at 4 degrees Celsius. The following day, cells were washed twice with PBS and incubated with Alexa Fluor-488 anti-rabbit secondary diluted at 1:500 in PBS (stock was provided at 2 mg/ml) for one hour at room temperature. Cells were washed twice with PBS and incubated with 0.1 ug/ml […] for 5 minutes at room temperature. Cells were washed three times with PBS and slides were mounted in Vectashield fluorescence mounting media. Slides were imaged using a Zeiss Axioplan 2 Upright Microscope. […] Immunofluorescence analysis using the Bethyl antibody was performed to determine if ATRX was recruited to foci. Immunofluorescence was performed as described in Example 1. In the responder cell line LS8817, further analysis was performed to determine the average number of foci present in responder cells undergoing senescence in response treatment with PD0332991. […] The distribution of the number of ATRX foci shifted to the right in responder cells treated with PD0332991 as compared to responder cells that were not treated. […] As shown in FIG. 16A-C, the increase in the number of ATRX foci in response to PD0332991 treatment in responder cells can be observed as early as day 2 subsequent to PD0332991 treatment.

[2] = system: non-responder cell line LS8107; experiment: ATRX foci by immunofluorescence in non-responder cells treated with PD0332991; format: cell-based
Method: as §1, with “treatment. To determine whether ATRX foci can be used as a marker for indicating if non-responders underwent senescence in response to treatment with second drug in combination with a CDK inhibitor, non-responder cells, e.g., LS8107, was treated with PD0332991 followed by treatment with shRNA directed to MDM2 2 days post-PD0332991 treatment (FIG. 17).” for “treatment.”

[3] = system: responder cell line LS8817; experiment: Senescence-associated β-galactosidase after PD0332991 in ATRX knockdown cells; format: cell-based; conditions: LS8817 infected with shRNA directed to ATRX vs shSCR, PD0332991 for seven days, FIG. 3
Method: To determine if ATRX plays a role in the senescence pathway induced by treatment with a CDK4 inhibitor, the expression of ATRX was genetically manipulated in the responder cell line, LS8817. Knockdown of ATRX (FIG. 2) was performed in LS8817 cells that were treated with PD0332991. The presence of ATRX in scrambled control shRNA (shSCR)-treated cells and the ATRX shRNA-treated cells was detected by the Bethyl antibody. The accumulation of […] associated β-galactosidase (SA-β-gal) shSCR-treated cells and the ATRX shRNA-treated cells was measured (FIG. 3). […] To determine if ATRX was also downstream of MDM2 loss, we subsequently infected the ATRX deficient cells with lentiviruses expressing shRNAs that targeted MDM2. In the responder cell line, LS8817, accumulation of SA-β-gal was still compromised even though the level of MDM2 was reduced (FIG. 4A). […] Thus, a form of ATRX was required for both PD0332991-induced loss of MDM2, and downstream of MDM2 loss to establish a senescent state.

Bethyl antibody = experiment: Reactivity of ATRX C-terminal peptides with the Bethyl antibody; format: binding; conditions: KLH-coupled peptides, FIG. 11
Text: All peptides were generated by Thermo Fisher Scientific/Pierce Biotechnology and coupled to the carrier KLH. All conjugates were provided at >98% purity as determined by HPLC. Peptide sequences were confirmed by mass spec. Peptides RSK, 2490Ac and 2480Ra reacted with the Bethyl antibody (FIG. 11).

Compound: CC(=O)c1c(C)c2cnc(Nc3ccc(N4CCNCC4)cn3)nc2n(C2CCCC2)c1=O [PD0332991]
- number of ATRX foci in responder cells undergoing senescence ([1]; LS8817, PD0332991 treated vs not treated, FIG. 14): significantly more
- number of cells that contained 18 or more ATRX foci ([1]; LS8817, in response to PD0332991 treatment, FIG. 14): greatly increased
- earliest time at which the increase in ATRX foci is observed ([1]; responder cells, subsequent to PD0332991 treatment, FIG. 16A-C): 2 days
- number of ATRX foci ([1]; senescent responder cells, PD0332991 treatment, FIG. 13B): increased
- number of ATRX foci ([2]; LS8107, PD0332991 followed by shMDM2 2 days later, vs untreated or PD0332991 alone, FIG. 18): significant increase
- average number of ATRX foci per cell ([2]; LS8107, PD0332991 treated vs not treated, FIG. 15): did not change
- number of ATRX foci ([2]; PD0332991-treated non-responder cells, FIG. 13B): no increase
- number of SA-β-gal positive cells [3]: greatly reduced

Compound: APPMRSKNPGPSQGKSM [amino acids 2475-2492 of ATRX, no modification, coupled to the carrier KLH]
- reactivity with the Bethyl antibody (Bethyl antibody): reacted

Compound: APPPMRSKNP [2480Rs] (APPPM[Arg(Me2s)]SKNP) [Peptide 2480Rs, amino acids 2475-2484 of ATRX, symmetrically methylated at arginine 2480]
- reactivity with the Bethyl antibody (Bethyl antibody): did not react

Compound: APPPMRSKNP [Peptide 2480Ra, amino acids 2475-2484 of ATRX, asymmetrically methylated at arginine 2480]
- reactivity with the Bethyl antibody (Bethyl antibody): reacted

Compound: PPPLQRAPPM [Peptide 2474, amino acids 2469-2479 of ATRX, no modification, coupled to KLH]
- reactivity with the Bethyl antibody (Bethyl antibody): did not react

Compound: SKNPGPSQG (SKNPGP[pS]QG) [Peptide 2487P, amino acids 2481-2489 of ATRX, phosphorylated at serine 2487]
- reactivity with the Bethyl antibody (Bethyl antibody): did not react

Compound: SKNPGPSQGKSM [Peptide 2490Ac, amino acids 2481-2492 of ATRX, acetylated at lysine 2490]
- reactivity with the Bethyl antibody (Bethyl antibody): reacted

From patent US20160222131A1, “ATRX AS A COMPANION DIAGNOSTIC FOR CDK4 INHIBITORS” (Memorial Sloan-Kettering Cancer Center, priority 2013, published 2016)
